Test results taken from patent EP4745134A1 (Jiangsu Yahong Meditech Co., Ltd., priority 2023, dated 2025).

What was measured:
PRMT5-MTA = PRMT5-MTA (Homo sapiens, UniProt O14744); assay: Enzymatic inhibitory activity against PRMT5-MTA (AlphaScreen); assay type: biochemical; conditions: read-out: IC50
In short: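 PRMT5/[…] (1 nM) was preincubated for 30 min at room temperature with 1 µM […] and 2.5 µM SAM, then exposed to compound (10-point, 3-fold from 1000 nM) for 15 min at 23 °C. Histone H4 substrate (5 nM) was added and reacted for 45 min at 23 °C. Symmetric dimethyl-R3 H4 was detected by AlphaScreen and IC50 calculated.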

HCT116 MTAP KO cells = assay: Inhibitory activity against cell proliferation (CellTiter Glo, 6 days), HCT116 MTAP KO; assay type: cell-based; conditions: for IC50: Homo sapiens, HCT-116, 144 h, HCT116 MTAP KO cells, 6 days, CellTiter Glo, read-out: HCT116 MTAP KO IC50; for Selectivity HCT 116-WT/ HCT116 MTAP KO: ratio of IC50 HCT116-WT / HCT116 MTAP KO
In short: (§1)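 250 cells/well, McCoy's 5A + 10% FBS, o/n 37°C 5% CO2; cpd 8-pt 4-fold from 10000 nM, 6 d; CTG lum on day 7; IC50 vs DMSO.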

HCT116-WT cells = assay: Inhibitory activity against cell proliferation (CellTiter Glo, 6 days), HCT116-WT; assay type: cell-based; conditions: 144 h, HCT116-WT cells, 6 days, CellTiter Glo; read-out: HCT116-WT IC50
In short: as §1

Chain of PRMT5-MTA (O14744 whole entry): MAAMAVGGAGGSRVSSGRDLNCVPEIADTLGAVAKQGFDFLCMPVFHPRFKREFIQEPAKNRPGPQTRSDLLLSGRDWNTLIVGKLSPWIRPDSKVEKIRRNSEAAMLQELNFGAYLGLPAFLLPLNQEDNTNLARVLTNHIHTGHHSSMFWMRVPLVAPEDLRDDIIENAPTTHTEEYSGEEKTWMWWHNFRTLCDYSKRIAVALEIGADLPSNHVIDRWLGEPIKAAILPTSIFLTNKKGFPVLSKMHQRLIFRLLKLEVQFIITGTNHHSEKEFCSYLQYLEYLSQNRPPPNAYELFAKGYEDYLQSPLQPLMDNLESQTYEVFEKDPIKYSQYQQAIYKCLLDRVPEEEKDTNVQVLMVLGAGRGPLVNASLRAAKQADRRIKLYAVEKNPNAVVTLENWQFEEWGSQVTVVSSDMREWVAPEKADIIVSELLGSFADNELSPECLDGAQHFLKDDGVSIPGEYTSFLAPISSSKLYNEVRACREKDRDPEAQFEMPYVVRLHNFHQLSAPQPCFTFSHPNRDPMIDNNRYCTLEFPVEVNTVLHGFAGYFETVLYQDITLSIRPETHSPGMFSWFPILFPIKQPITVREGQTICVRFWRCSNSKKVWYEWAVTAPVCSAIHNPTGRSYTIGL
Chain of PRMT5-MTA (Q9BQA1 whole entry partner): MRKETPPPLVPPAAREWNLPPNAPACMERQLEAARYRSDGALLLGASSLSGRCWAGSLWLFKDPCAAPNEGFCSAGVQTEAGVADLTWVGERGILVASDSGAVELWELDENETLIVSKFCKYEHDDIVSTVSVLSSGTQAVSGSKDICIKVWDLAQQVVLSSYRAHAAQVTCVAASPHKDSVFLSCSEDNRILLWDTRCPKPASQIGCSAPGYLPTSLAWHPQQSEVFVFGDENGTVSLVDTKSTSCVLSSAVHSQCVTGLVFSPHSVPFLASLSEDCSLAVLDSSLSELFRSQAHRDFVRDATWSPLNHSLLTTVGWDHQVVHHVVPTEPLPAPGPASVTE

SMILES | IC50 (PRMT5-MTA) [nM] | IC50 (HCT116 MTAP KO cells) [nM] | Selectivity HCT 116-WT/ HCT116 MTAP KO (HCT116 MTAP KO cells) | IC50 (HCT116-WT cells) [nM]
CN(c1ncccn1)N(Cc1ccc(C(F)(F)F)cn1)C(=O)c1ccc2nc(N)c3ccncc3c2c1 [Example 78, 5-amino-N'-methyl-N'-(pyrimidin-2-yl)-N-((5-(trifluoromethyl)pyridin-2-yl)methyl)benzo[c][2,6]naphthyridine-9-carbohydrazide] | 2 | 14 | 12.07 | 169
Cc1cc2cc(C(=O)N(Cc3ccc(-c4cc[nH]n4)cn3)N(C)c3ncccn3)ccc2nc1N [Example 142, N-((5-(1H-pyrazol-3-yl)pyridin-2-yl)methyl)-2-amino-N',3-dimethyl-N'-(pyrimidin-2-yl)quinoline-6-carbohydrazide] | 4.1 | 201 | 19.43 | 3910
Cc1cc2cc(C(=O)N(Cc3ccc(C(F)(F)F)cn3)N(C)c3ncc(Cl)cn3)ccc2nc1N [Example 69, 2-amino-N'-(5-chloropyrimidin-2-yl)-N', 3-dimethyl-N-((5-(trifluoromethyl)pyridin-2-yl)methyl)quinoline-6-carbohydrazide] | 2.4 | 216 | 14.63 | 3160
Cc1cc2cc(C(=O)N(Cc3ccc(-c4cncnc4)cn3)N(C)c3ncccn3)ccc2nc1N [Example 193, 2-amino-N',3-dimethyl-N'-(pyrimidin-2-yl)-N-((5-(pyrimidin-5-yl)pyridin-2-yl)methyl)quinoline-6-carbohydrazide] | 2.7 | 94 | 25.35 | 2380
CC(=O)c1ccc(CN(C(=O)c2ccc3nc(N)c(C)cc3c2)N(C)c2ncccn2)nc1 [Example 294, N-((5-acetylpyridin-2-yl)methyl)-2-amino-N',3-dimethyl-N'-(pyrimidin-2-yl)quinoline-6-carbohydrazide] | 1.9 | 113 | 25.71 | 2900
Cc1cc2cc(C(=O)N(Cc3ccc(-c4scnc4C(F)(F)F)cn3)N(C)c3ncccn3)ccc2nc1N [Example 237, 2-amino-N',3-dimethyl-N'-(pyrimidin-2-yl)-N-((5-(4-(trifluoromethyl)thiazol-5-yl)pyridin-2-yl)methyl)quinoline-6-carbohydrazide] | 8 | 32 | 36.97 | 1180
Cc1ncc(-c2cnc(N3CC(C)CN3C(=O)c3cc4c(cc3C)nc(N)c3cnn(C)c34)c(F)c2)s1 (stereo not shown) [Example 476, (4-amino-1,7-dimethyl-1H-pyrazolo[4,3-c]quinolin-8-yl)(2-(3-fluoro-5-(2-methylthiazol-5-yl)pyridin-2-yl)-4-methylpyrazolidin-1-yl)methanone] | 5.6 | 28 | 33.64 | 942
CCOC1CN(C(=O)c2cc3c(cc2C)nc(N)c2cnn(C)c23)N(c2ncccc2F)C1 (stereo not shown) [Example 453, (4-amino-1,7-dimethyl-1H-pyrazolo[4,3-c]quinolin-8-yl)(4-ethoxy-2-(3-fluoropyridin-2-yl)pyrazolidin-1-yl)methanone] | 5.2 | 23 | 22.74 | 523
Cc1cc2cc(C(=O)N(Cc3ccc(C(F)(F)F)cn3)N(C)c3nccc4nc(C)c(C)nc34)ccc2nc1N [Example 272, 2-amino-N'-(2,3-dimethylpyrido[3,4-b]pyrazin-5-yl)-N',3-dimethyl-N-((5-(trifluoromethyl)pyridin-2-yl)methyl)quinoline-6-carbohydrazide] | 2.6 | 242 | 13.13 | 3180
Cc1cc2cc(C(=O)N(Cc3ccc(C(F)(F)F)cn3)N(C)c3ncccc3Cl)ccc2nc1N [Example 66, 2-amino-N'-(3-chloropyridin-2-yl)-N',3-d imethyl-N-((5-(trifluoromethyl)pyridin-2-yl)methyl)quinoline-6-carbohydrazide] | 3.9 | 124 | 16.06 | 1990
